Data set [1] in a line: Size and zeta potential of nanocomplexes by DLS. Format: physicochemical. The settings on record: nanocomplexes with DNA at charge ratio 10, DNA 25 ng/μl; for Size (nm): deionized water, 25° C. The method, then: The mean hydrodynamic diameter and zeta potential of nanocomplexes prepared at charge 10.0 at 25 ng/μl of DNA concentration in deionized water were measured by Zeta sizer Nano ZS (Malvern Instruments, UK) at a fixed angle of 173° at 25° C. Minimum of 3 readings were recorded for each sample with replicates. As presented in Table-2 all the peptides were able to make nanocomplexes with DNA. The size of nanocomplexes was ranging from 50 to 110 nm and Zeta potential was ranging from 30 to 60 mV.
The mean hydrodynamic diameter and zeta potential of nanocomplex (Table 2) prepared at charge 10 at 25 ng/μl of DNA concentration in deionized water were measured by Zeta sizer Nano ZS (Malvern Instruments, UK) at a fixed angle of 173° at 25° C. Minimum of 3 readings were recorded for each sample with replicates. All five invented peptides were able to Make monodisperse nanocomplex with sizes ranging from 50 nm to 110 nm with DNA.

The subject of data set [2] is CHO-K1 cells. Nature of the data set: Luciferase transfection efficiency in CHO-K1 cells. Format: cell-based, Chinese hamster. The source says: The transfection efficiency in terms of reporter gene expression has been checked using luciferase reporter assay. A plasmid (pMIR-Report™ Luciferase) containing luciferase gene was complexed with the peptide and transfected to the cell. The nanocomplexes were made at different charge ratios and transfected in a wide range of cell lines. CHO-K1 cells were maintained in Ham's F-12K media and MCF-7 and A549 cells in low glucose DMEM supplemented with 10% (v/v) Fetal bovine serum (Life Technologies, USA); at 37° C. and 5% CO2 in humidified incubator. Cells were seeded 24 h before transfection in 24-well plates. Nanocomplexes were prepared with final DNA concentration of 20 ng/μl and incubated for 1 h at room temperature. 100 μl of nanocomplex was added to cells at ˜70% confluency in serum-free media (OptiMEM, Invitrogen). After 5 h of incubation at 37° C. and 5% CO2 in humidified incubator, the media was aspirated; cells were washed with phosphate buffered saline (PBS, pH 7.4) and supplemented with 500 μl of complete growth medium. After 24 h, cells were washed with PBS and lysed with 100 μl of cell culture lysis buffer (1×CCLR, Promega). Luciferase expression was measured in 50 μl of cell lysate supernatant using the luciferase assay substrate (Promega). Light emission was measured by integration over 1 Os in Orion microplate luminometer (Berthold Detection System, Germany). Luciferase activity was normalized with total protein content of the cells estimated using BCA protein assay (Pierce).
CHO-K1 cells were maintained in Ham's F-12K media and MCF-7 and A549 cells in low glucose DMEM supplemented with 10% (v/v) Fetal bovine serum (Life Technologies, USA); at 37° C. and 5% CO2 in humidified incubator. Cells were seeded 24 h before transfection in 24-well plates. A plasmid (pMIR-Report™ Luciferase) containing luciferase gene was complexed with the peptide and transfected to the cell. The nanocomplexes were made at different charge ratios and transfected in a wide range of cell lines. Nanocomplexes were prepared with final DNA concentration of 20 ng/μl and incubated for 1 h at room temperature. 100 μl of nanocomplex was added to cells at 70% confluency in serum-free media (OptiMEM, Invitrogen). Cellfectin, Superfect and Lipofectamine2000 used as manufacturer protocol. In case of transfection in presence of serum, nanocomplexes were added in complete media. […] Luciferase expression was measured in 50 μl of cell lysate supernatant using the luciferase assay substrate (Promega). Light emission was measured by integration over 10 s in Orion micro plate luminometer (Berthold Detection System, Germany). […]

Data set [3] deals with CHO-K1 cells. Put plainly: Cellular uptake of small RNA (Siglo) by flow cytometry. The note with it: Siglo non-covalently complexed; for small RNA delivery: charge ratio 5; for uptake of the small RNA (fluorescence positive cells): charge ratio 5, CHO-K1, 4 h. Format: cell-based, Chinese hamster. The procedure: (§1) The uptake of the small RNA, which is noncovalently complexed with the peptides, was almost 100% in CHO-K1 cells at charge ratio 5 for Mgpe-9 and Mgpe-10. Siglo was used as a model small RNA. This RNA was used to prepare the nanocomplexes with the peptide at charge ratio 5.0. Chinese hamster ovary cells (CHO-K1) were maintained in Ham's F-12K media supplemented with 10% (v/v) Fetal bovine serum (Life Technologies, USA); at 37° C. and 5% CO2 in humidified incubator. Cells were grown in 24 well plate which was seeded 24 h before use. At a confluency of 70-80% the cells were treated with labelled nanocomplexes for 4 h at 37° C. After incubation, the media was removed and cells were washed twice with PBS supplemented with heparin (1 mg/ml). The cells were then treated with trypsin (0.25%) for 5-10 min and harvested in complete media, pelleted down, washed with PBS, resuspended in PBS having 1% BSA and then analyzed on FACS-Calibur™ (Becton Dickinson, USA) using CellQuest. Pro software. The labelled nanocomplexes were excited using 488 nm laser and detected with 530/30 nm (FL1) band pass filter. In each case total 10,000 events were acquired. Percentage of fluorescence positive cells was plotted as bars and their mean intensity was plotted as a line.
as §1, with “Siglo” for “The uptake of the small RNA, which is noncovalently complexed with the peptides, was almost 100% in CHO-K1 cells at charge ratio 5 for Mgpe-9 and Mgpe-10. Siglo”, “RNA” for “RNA.”, “plates” for “plate”, “CellQuest” for “CellQuest.”, “line. The uptake of the small RNA, which is noncovalently complexed with the peptides, was almost 100% in CHO-K1 cells at charge ratio 5 for Mgpe-9 and Mgpe-10. […] Nanocomplex containing invented peptide can carry biomolecules in the range of 20 bp to 7 kbp size.” for “line.”
On the technique in general: A flow cytometer gives signals particle by particle.

For data set [4], the system named is CHO-K1 cells. Nature of the data set: Transfection in presence of 10% serum. Type of data set: cell-based, Chinese hamster. The settings on record: CHO-K1, charge ratio 20.
The next data set has as its system A549. Put plainly: Luciferase transfection efficiency in A549 cells. Type of data set: cell-based. The settings on record: A549, charge ratio 5. The source says: (§2) The transfection efficiency in terms of reporter gene expression has been checked using luciferase reporter assay. A plasmid (pMIR-Report™ Luciferase) containing luciferase gene was complexed with the peptide and transfected to the cell. The nanocomplexes were made at different charge ratios and transfected in a wide range of cell lines. CHO-K1 cells were maintained in Ham's F-12K media and MCF-7 and A549 cells in low glucose DMEM supplemented with 10% (v/v) Fetal bovine serum (Life Technologies, USA); at 37° C. and 5% CO2 in humidified incubator. Cells were seeded 24 h before transfection in 24-well plates. […] Luciferase expression was measured in 50 μl of cell lysate supernatant using the luciferase assay substrate (Promega). Light emission was measured by integration over 1 Os in Orion microplate luminometer (Berthold Detection System, Germany). […]
(§3) CHO-K1 cells were maintained in Ham's F-12K media and MCF-7 and A549 cells in low glucose DMEM supplemented with 10% (v/v) Fetal bovine serum (Life Technologies, USA); at 37° C. and 5% CO2 in humidified incubator. […] Luciferase expression was measured in 50 μl of cell lysate supernatant using the luciferase assay substrate (Promega). Light emission was measured by integration over 10 s in Orion micro plate luminometer (Berthold Detection System, Germany). […]

The subject of another data set is MCF-7. Put plainly: Luciferase transfection efficiency in MCF-7 cells. The settings on record: MCF-7, charge ratio 5. Type of data set: cell-based.
Text: as §2, §3

“Also recorded” adds a separate entry of the source.

As to “SRLSHLRHHYSKKWHRFR (listed as Homo sapiens) [Mgpe-1, 18 mer amphipathic peptide derived from Human Protein phosphatase 1E; tested as nanocomplex with plasmid DNA]”, in data set [1], the PDI was determined as 0.151 ± 0.031, the “Zeta potential(mV)” value is recorded as 36.5 ± 0.8 mV and the “Size (nm)” value stood at 80.1 ± 7.3 nm.

For the sequence RRLRHLRHHYRRRWHRFR [Mgpe-3], in data set [1], the PDI came out at 0.152 ± 0.014, the “Zeta potential(mV)” value was determined as 33.5 ± 5.9 mV and the “Size (nm)” value stood at 63.2 ± 4.5 nm. Also, the “transfection efficiency compared with Cellfectin and Superfect” value in the data set on CHO-K1 cells [2] (CHO-K1, charge ratio 10) is recorded as “higher or equal transfection efficiency”.

As to “LLYWFRRRHRHHRRRHRR [Mgpe-4, primary amphipathic peptide by rearrangement of the amino acids of Mgpe-3]”, in data set [1], the PDI is on record as 0.155 ± 0.010, the “Zeta potential(mV)” value is 25.4 ± 0.2 mV and the “Size (nm)” value is 62.8 ± 7.0 nm. Besides, the “transfection efficiency compared with Cellfectin and Superfect” value in the data set on CHO-K1 cells [2] (CHO-K1, charge ratio 5) is “higher or equal transfection efficiency”.

With “CLLYWFRRRHRHHRRRHRRC [Mgpe-10, Mgpe-4 with a cysteine residue at each end]”, in data set [1], the PDI was found to be 0.206 ± 0.004, the “Zeta potential(mV)” value is reported as 57.6 ± 3.2 mV and the “Size (nm)” value is 66.2 ± 0.7 nm. Moreover, in the data set on CHO-K1 cells [3], the “small RNA delivery” value is listed as “found to show small RNA delivery” and the “uptake of the small RNA (fluorescence positive cells)” value is reported as around 100%.

Turning to “CRRLRHLRHHYRRRWHRFRC [Mgpe-9, Mgpe-3 with a cysteine residue at each end]”, in data set [1], the PDI came out at 0.169 ± 0.002, the “Zeta potential(mV)” value is reported as 43.4 ± 0.1 mV and the “Size (nm)” value stood at 75.8 ± 3.8 nm. Also, in the data set on CHO-K1 cells [4], the “transfection efficiency in presence of serum” value is reported as “up to 10^7 RLU/mg protein”. Also, the “transfection efficiency (luciferase)” value in the data set on A549 was “more than 10^6 RLU/mg protein”. For the same sequence, the “transfection efficiency (luciferase)” value with MCF-7 is reported as “more than 10^8 RLU/mg protein”. Also, in the data set with CHO-K1 cells [3], the “small RNA delivery” value is “found to show small RNA delivery” and the “uptake of the small RNA (fluorescence positive cells)” value is given as around 100%. The “transfection efficiency compared with Cellfectin, Superfect and Lipofectamine 2000” value in the data set with CHO-K1 cells [2] (CHO-K1, charge ratio 5) was “higher or equal transfection efficiency; also recorded: highest transfection efficiency”. For the same sequence, the “transfection efficiency (luciferase)” value in the data set with CHO-K1 cells [2] (CHO-K1, charge ratio 5, plasmid DNA non-covalently complexed) was “more than 10^8 RLU/mg protein”.
